Here are results for seven compounds from US8901167B2, “Product and process for inhibition of biofilm development” (National Jewish Health, priority 2004, dated 2014).

Converted amounts (≈) assume the structure as drawn. Bounds are passed on as bounds.

Series [1] deals with P. aeruginosa strain PA01. As to the kind of experiment: Antibiotic susceptibility of planktonic population (MIC), NCCLS assay. Type of series: cell-based. The note with it: Pseudomonas aeruginosa. As to the method: (§1) As human neutrophils enhance biofilm development, the inventors questioned if biofilms formed in the presence of neutrophils had altered patterns of antibiotic resistance. Biofilms and planktonic P. aeruginosa grown in the presence or absence of neutrophils for 24 hours were tested for susceptibility to four clinically relevant classes of antibiotics. […] No significant changes in antibiotic susceptibilities was detected in planktonic P. aeruginosa in the presence of neutrophils. This selective modification of antibiotic resistance supports the conclusion that neutrophils mediate phenotypic changes in addition to greater biofilm thickness.

Series [2] relates to P. aeruginosa strain PA01 biofilm. As to the kind of experiment: Antibiotic susceptibility of biofilm population (MBEC), NCCLS assay. The conditions noted are these: for Susceptibility of biofilms grown in the presence of neutrophils versus absence: biofilms grown 24 hours. The class given is cell-based. As to the method:
as §1

The subject of series [3] is P. aeruginosa PA01 biofilm. The class given is cell-based. The note with it: for Effect on neutrophil-induced enhancement of biofilm formation: CV staining, DNase I 90 Kunitz units/ml, gelsolin 200 nM, FIG. 3C. How it is done: A static biofilm assay was used with polypropylene tubes (9). PA01 was grown overnight under constant rotation to late stationary phase at 37° C. in LB. All biofilm studies were initiated with neutrophils (1×10^7 cells/ml) and PA01 (1×10^6 CFU/ml) in suspension, and cultures were incubated under stationary conditions at 37° C. P. aeruginosa adherent to the tube was considered to be a biofilm, while bacteria not adherent to the surface of the tube was considered to be “planktonic”. Viable P. aeruginosa biofilm and planktonic cells were quantified by sonicating the adherent bacteria in LB, followed by serial dilution and plating to determine CFUs on Pseudomonas Isolation Agar (Difco, Sparks, Md.). P. aeruginosa biofilm density was quantified by crystal violet (CV) staining (9). The contribution of background staining of neutrophil components, tubes and reagents were subtracted from depicted values. Neutrophils were lysed with 0.1% Tween 20 (BioRad, Hercules, Calif.) for 30 min. Neutrophil lysates relatively depleted of F-actin were prepared by precipitating the F-actin using the F-actin/G-actin In Vivo Biochem Kit (Cytoskeleton, Denver, Colo.). The total protein present in the whole cell lysate and the F-actin depleted lysate was determined by the Bradford Protein Assay (BioRad, Hercules, Calif.). Biofilm exopolysaccharide was determined by total carbohydrate assays as previously described (15).
Genomic DNA was isolated from neutrophils and P. aeruginosa using the DNeasy Tissue Kit (Qiagen, Valencia, Calif.) according to the manufacturer's protocol. Actin and DNA polymerization was performed as described previously (38). Effects of filament cleavage was tested by initially treating the samples with 90 Kunitz units/ml of DNase I (43) and/or 200 nM gelsolin (Sigma) (42). Granule proteins were isolated from homogenized human neutrophils by differential centrifugation in a discontinuous Percoll/sucrose gradient (34). Heavy and light granules were immediately suspended in RPMI media and added to P. aeruginosa.

Another series relates to actin-DNA filaments. As to the kind of experiment: Fluorescence microscopy of actin-DNA filaments in neutrophil lysates and CF sputum. The note with it: data not shown. Also on record: species or system human. As to the method: Samples of sputa from CF patients chronically infected with P. aeruginosa were frozen in liquid nitrogen and stored at −20° C. At the time of analysis, sputa were thawed and resuspended carefully in PBS (1:4 vol/vol ratio) containing 10^7 CFU/ml of P. aeruginosa labeled with the intracellular fluorescent conjugate (CFDA SE) as described in the actin-binding protocol. Samples were incubated for 4 hours at 37° C., then dried on Superfrost/Plus microscope slides (Fisher Scientific) and stained for 15 min with 10 μl of 0.6 μM Alexa Fluor 546 Phalloidin (Molecular Probes), 10 μl of 0.2 μM DAPI, dilactate (Molecular Probes), to visualize F-actin and DNA. Visualization of actin (546/576 nm), DNA (358/461 nm), and P. aeruginosa (492/517 nm) were performed sequentially on the same field, followed by an “overlay” view at all 3 wavelengths. Neutrophil lysates were also combined with P. aeruginosa labeled with CFDA SE for 4 hrs at 37° C., and staining of F-actin and DNA was conducted as described for CF sputa.

Series [4] concerns P. aeruginosa biofilm. The note with it: literature refs 39, 43; cited from earlier work.
Series [5] deals with P. aeruginosa biofilm. As to the kind of experiment: NUNC-TSP biofilm growth of P. aeruginosa suspended in mucin. The class given is cell-based. The text has this: When P. aeruginosa was suspended in mucin rather then RPMI media, a similar effect was observed on NUNC-TSP biofilm growth. […] These aggregates of P. aeruginosa may represent the predominant structure of biofilms that are present in the CF airway, and the combination of neutrophils with mucin appears to enhance their formation.

Where [6] appears, read: PA01 + PMN, planktonic, grown with neutrophils 24 hours.
The mark [7] stands for this setting: PA01 planktonic, without neutrophils.
Setting [8] is: PA01 + PMN, biofilm grown with neutrophils 24 hours.
[9] abbreviates: PA01 biofilm, without neutrophils.

In general, MIC refers to the smallest concentration in the dilution series that meets the test's criterion for growth inhibition. As for `CC[C@H]1OC(=O)[C@H](C)[C@@H](O[C@H]2C[C@@](C)(OC)[C@@H](O)[C@H](C)O2)[C@H](C)[C@@H](O[C@@H]2O[C@H](C)C[C@H](N(C)C)[C@H]2O)[C@](C)(O)C[C@@H](C)CN(C)[C@H](C)[C@@H](O)[C@]1(C)O` [Azithromycin], the values for the MIC in series [1] (setting [6]) and in series [1] (setting [7]) were 32 µg/mL and 64 µg/mL (≈ 85.4 µM), respectively. Moreover, the MBEC in series [2] (setting [8]) is 1024 µg/mL; in series [2] (setting [9]), greater than 1024 µg/mL. The “Susceptibility of biofilms grown in the presence of neutrophils versus absence” value (shortened to “Susceptibility … of neutrophils versus absence”) in series [2] is “unchanged”.
`CC(C)(O/N=C(\C(=O)N[C@@H]1C(=O)N2C(C(=O)[O-])=C(C[n+]3ccccc3)CS[C@H]12)c1csc(N)n1)C(=O)O` [Ceftazidime]: the MIC was determined as 2 µg/mL in series [1] (setting [6]) and 2 µg/mL (≈ 3.66 µM) in series [1] (setting [7]). Also, the MBEC in series [2] (setting [8]) and in series [2] (setting [9]) was greater than 1024 µg/mL in each case. Besides, the “Susceptibility … of neutrophils versus absence” value in series [2] is given as “unchanged”.
For `O=C(O)c1cn(C2CC2)c2cc(N3CCNCC3)c(F)cc2c1=O` [Ciprofloxacin], the minimal inhibitory concentration (MIC) in series [1] (setting [6]) came to 2 µg/mL; in series [1] (setting [7]), 0.5 µg/mL (≈ 1.51 µM). In addition, the MBEC came to 128 µg/mL in series [2] (setting [8]) and 512 µg/mL in series [2] (setting [9]). Besides, the “Susceptibility … of neutrophils versus absence” value in series [2] is “significantly greater susceptibility”.
As to `NC[C@H]1O[C@H](O[C@H]2[C@H](O)[C@@H](O[C@H]3O[C@H](CO)[C@@H](O)[C@H](N)[C@H]3O)[C@H](N)C[C@@H]2N)[C@H](N)C[C@@H]1O` [Tobramycin], the figures for the MIC in series [1] (setting [6]) and in series [1] (setting [7]) were 0.5 µg/mL and 1 µg/mL (≈ 2.14 µM), respectively. The MBEC in series [2] (setting [8]) was 256 µg/mL; in series [2] (setting [9]) it was greater than 1024 µg/mL. In addition, in series [2], the “Susceptibility … of neutrophils versus absence” value is given as “significantly greater susceptibility”.
DNase: in series [3], the “Effect on bacterial growth or neutrophil survival” value was “without significantly inhibiting bacterial growth or neutrophil survival” and the “Effect on neutrophil-induced enhancement of biofilm formation” value is “abolished much of the neutrophil-induced enhancement of biofilm formation”. Besides, the “Disruption of actin-DNA filaments” value in the series with actin-DNA filaments is “near complete disruption of the actin-DNA filaments”. In addition, the “Effect on P. aeruginosa biofilm formation” value with P. aeruginosa biofilm [4] is listed as “strongly inhibited biofilm formation”.
Take gelsolin: the “Effect on neutrophil-induced enhancement of biofilm formation” value in series [3] is “significantly reduced the neutrophil-induced enhancement of the biofilm”.
In the case of mucin, the “Effect on biofilm growth” value with P. aeruginosa biofilm [5] (absence of neutrophils) is reported as “increased biofilm growth”; in the series on P. aeruginosa biofilm [5] (presence of neutrophils), “no change”.
